From ChEMBL document CHEMBL1147970, “Enzymatic synthesis of arbutin undecylenic acid ester and its inhibitory effect on melanin synthesis” (2007) come the findings set out here.

Structures are written as SMILES. Active and inactive are the calls of the source. The calls are words filed in the database; no cut-off is given here.

This test concerns B16. Nature of the test: Antimelanogenic activity in mouse B16 cells at 0.1 mM after 6 days relative to control. The test is classed as functional.

Consider `C=CCCCCCCCCC(=O)OC[C@H]1O[C@@H](Oc2ccc(O)cc2)[C@H](O)[C@@H](O)[C@@H]1O`, for which the Activity worked out at 30%.

As to `OC[C@H]1O[C@@H](Oc2ccc(O)cc2)[C@H](O)[C@@H](O)[C@@H]1O`, the result was inactive.
